# Read-outs that look alike come from different tables or passages of the source.
# Assay type: physicochemical
# Protocol: This Example studies the solubility and stability of acyclovir in various topical excipients. Table 1 and Table 2 below indicate the various excipients that solubility was tested in and stability of acyclovir in these excipients, respectively. [table]
smiles,measurement,setting,value
Nc1nc2c(ncn2COCCO)c(=O)[nH]1 [Acyclovir],Saturated solubility of Acyclovir,pH 4,0.10 (0.10-0.10) % w/w
same,Saturated solubility of Acyclovir,pH 6,0.10 (0.09-0.10) % w/w

# Source: patent US11246872B2, “Topical acyclovir formulations and uses thereof” (priority 2019, dated 2022)
